Structures can show the parent of a compound that is named as a salt.
test system: Enterococcus faecalis; assay: Antibacterial activity assay (MIC, broth dilution); assay type: cell-based; conditions: Enterococcus faecalis; Table 21; read-out: Escherichia feacalis MIC

`CN(CCC#N)c1ccc(/C=C/c2cc(-c3ccccc3)cc(-c3ccccc3)[o+]2)cc1.F[B-](F)(F)F` and `Cc1ccc(-c2cc(/C=C/c3ccc(N(C)CCC#N)cc3)[o+]c(-c3ccc(C)cc3)c2)cc1.F[B-](F)(F)F` cannot be ordered by MIC: > 64 µg/mL for the first, > 64 µg/mL for the second.

`CN(CCC#N)c1ccc(/C=C/c2cc(-c3ccc(C(C)(C)C)cc3)cc(-c3ccc(C(C)(C)C)cc3)[o+]2)cc1.F[B-](F)(F)F` and `CN(C)c1ccc(/C=C/c2cc(-c3ccc(I)cc3)cc(-c3ccc(I)cc3)[o+]2)cc1.F[B-](F)(F)F` cannot be ordered by MIC: > 64 µg/mL for the first, > 64 µg/mL for the second.

test system: Staphylococcus aureus; assay: Antibacterial activity assay (MIC, broth dilution); assay type: cell-based; set-up: S. aureus Killing / Bacterial Killing S. aureus: unit not given here; conditions: Staphylococcus aureus USA 300 strain; broth microdilution

Compared with `CN(C)c1ccc(/C=C/c2cc(-c3ccccc3)cc(-c3ccc(F)cc3)[n+]2C)cc1.[I-]` [Compound 3jc07-1, (E)-2-(4-(dimethylamino)styryl)-6-(4-fluorophenyl)-1-methyl-4-phenylpyridin-1-ium iodide salt], `CN(C)c1ccc(/C=C/c2cc(-c3ccccc3)cc(-c3ccc(Br)cc3)[n+]2C)cc1.[I-]` [Compound 3jc07-3, (E)-2-(4-bromophenyl)-6-(4-(dimethylamino)styryl)-1-methyl-4-phenylpyridin-1-ium iodide salt] is 2-fold lower in MIC SA USA300: 4 µg/mL for the first, 2 µg/mL for the second.

`CN(CCC#N)c1ccc(/C=C/c2cc(-c3ccccc3)cc(-c3ccc(F)cc3)[n+]2C)cc1.[I-]` [Compound 3jc07-2, (E)-2-(4-((2-cyanoethyl)(methyl)amino)styryl)-6-(4-fluorophenyl)-1-methyl-4-phenylpyridin-1-ium iodide salt] and `CN(CCC#N)c1ccc(/C=C/c2cc(-c3ccccc3)cc(-c3ccc(Br)cc3)[n+]2C)cc1.[I-]` [Compound 3jc07-4, (E)-2-(4-bromophenyl)-6-(4-((2-cyanoethyl)(methyl)amino)styryl)-1-methyl-4-phenylpyridin-1-ium iodide salt] are the same in MIC SA USA300: 32 µg/mL for the first, 32 µg/mL for the second.

`COc1ccc(-c2cc(/C=C/c3ccc(N(C)C)cc3)[n+](C)c(-c3ccc(F)cc3)c2)cc1.[I-]` [Compound 3jc07-5, (E)-2-(4-(dimethylamino)styryl)-6-(4-fluorophenyl)-4-(4-methoxyphenyl)-1-methylpyridin-1-ium iodide salt] and `COc1ccc(-c2cc(/C=C/c3ccc(N(C)C)cc3)[n+](C)c(-c3ccc(Br)cc3)c2)cc1.[I-]` [Compound 3jc07-7, (E)-2-(4-bromophenyl)-6-(4-(dimethylamino)styryl)-4-(4-methoxyphenyl)-1-methylpyridin-1-ium iodide salt] are the same in MIC SA USA300: 1 µg/mL for the first, 1 µg/mL for the second.

`COc1ccc(-c2cc(/C=C/c3ccc(N(C)CCC#N)cc3)[n+](C)c(-c3ccc(F)cc3)c2)cc1.[I-]` [Compound 3jc07-6, (E)-2-(4-((2-cyanoethyl)(methyl)amino)styryl)-6-(4-fluorophenyl)-4-(4-methoxyphenyl)-1-methylpyridin-1-ium iodide salt] and `COc1ccc(-c2cc(/C=C/c3ccc(N(C)CCC#N)cc3)[n+](C)c(-c3ccc(Br)cc3)c2)cc1.[I-]` [Compound 3jc07-8] are the same in MIC SA USA300: 16 µg/mL for the first, 16 µg/mL for the second.

`CN(C)c1ccc(/C=C/c2cc(-c3ccc(I)cc3)cc(-c3ccc(F)cc3)[n+]2C)cc1.[I-]` [Compound 3jc07-9, (E)-2-(4-(dimethylamino)styryl)-6-(4-fluorophenyl)-4-(4-iodophenyl)-1-methylpyridin-1-ium iodide salt] and `CN(C)c1ccc(/C=C/c2cc(-c3ccc(I)cc3)cc(-c3ccc(Br)cc3)[n+]2C)cc1.[I-]` [Compound 3jc07-11, (E)-2-(4-bromophenyl)-6-(4-(dimethylamino)styryl)-4-(4-iodophenyl)-1-methylpyridin-1-ium iodide salt] are the same in MIC SA USA300: 4 µg/mL for the first, 4 µg/mL for the second.

`CN(CCC#N)c1ccc(/C=C/c2cc(-c3ccc(I)cc3)cc(-c3ccc(F)cc3)[n+]2C)cc1.[I-]` [Compound 3jc07-10, (E)-2-(4-((2-cyanoethyl)(methyl)amino)styryl)-6-(4-fluorophenyl)-4-(4-iodophenyl)-1-methylpyridin-1-ium iodide salt] and `CN(CCC#N)c1ccc(/C=C/c2cc(-c3ccc(I)cc3)cc(-c3ccc(Br)cc3)[n+]2C)cc1` [Compound 3jc07-12, (E)-2-(4-bromophenyl)-6-(4-((2-cyanoethyl)(methyl)amino)styryl)-4-(4-iodophenyl)-1-methylpyridin-1-ium iodide salt] are the same in MIC SA USA300: 32 µg/mL for the first, 32 µg/mL for the second.

`CN(CCC#N)c1ccc(/C=C/c2cc(-c3ccc(F)cc3)cc(-c3ccc(F)cc3)[o+]2)cc1.F[B-](F)(F)F` [Compound 3jc09-1, (E)-2-(4-((2-cyanoethyl)(methyl)amino)styryl)-4,6-bis(4-fluorophenyl)pyrylium boron tetrafluoride salt] and `CN(CCC#N)c1ccc(/C=C/c2cc(-c3ccc(Br)cc3)cc(-c3ccc(Br)cc3)[o+]2)cc1` [Compound 3jc09-2, (E)-2,4-bis(4-bromophenyl)-6-(4-((2-cyanoethyl)(methyl)amino)styryl)pyrylium boron tetrafluoride salt] cannot be ordered by MIC SA USA300: > 64 µg/mL for the first, > 64 µg/mL for the second.

same assay, conditions: Staphylococcus aureus; Table 21; read-out: Staphylococcus aureus MIC

`CN(CCC#N)c1ccc(/C=C/c2cc(-c3ccccc3)cc(-c3ccccc3)[o+]2)cc1.F[B-](F)(F)F` and `Cc1ccc(-c2cc(/C=C/c3ccc(N(C)CCC#N)cc3)[o+]c(-c3ccc(C)cc3)c2)cc1.F[B-](F)(F)F` cannot be ordered by MIC: > 64 µg/mL for the first, > 64 µg/mL for the second.

`CN(CCC#N)c1ccc(/C=C/c2cc(-c3ccc(C(C)(C)C)cc3)cc(-c3ccc(C(C)(C)C)cc3)[o+]2)cc1.F[B-](F)(F)F` and `CN(C)c1ccc(/C=C/c2cc(-c3ccc(I)cc3)cc(-c3ccc(I)cc3)[o+]2)cc1.F[B-](F)(F)F` cannot be ordered by MIC: > 64 µg/mL for the first, > 64 µg/mL for the second.

same assay, conditions: anti-bacterial activity (MIC); strain not stated

In order of rising “S. aureus Killing” value:
1. CN1/C(=C/C=C/c2cc(-c3ccccc3)cc(-c3ccccc3)[o+]2)C(C)(C)c2ccccc21 [drawing 116, 2,4-diphenyl~6-((1E,3E)-3-(1,3,3-trimethylindolin-2-ylidene)prop-1-en-1-yl)pyrylium boron tetrafluoride salt]  0.5
2. Cc1ccc(-c2cc(/C=C/c3cc4c5c(c3)CCCN5CCC4)[o+]c(-c3ccc(C)c(C)c3)c2)cc1C [drawing 122, (E)-2,4-bis(3.4-dimethyiphenyl)-6-(2-(1,2,3,5,6,7-hexahydropyrido [3,2,1-ij]quinolin-9-yl)vinyl)pyrylium boron tetrafluoride salt]  0.5
3. CCc1ccc(-c2cc(/C=C/c3cn(C)c4ccccc34)[o+]c(-c3ccc(CC)cc3)c2)cc1 [(E)-2.4-bis(4-ethylphenyl)-6-(2-(1-methyl-1H-indol-3-yl)vinyl)pyrylium boron tetrafiuoride salt]  1
4. Cc1ccc(-c2cc(/C=C/C=C3/N(C)c4ccccc4C3(C)C)[o+]c(-c3ccc(C)cc3)c2)cc1 [drawing 117, 2,4-di-p-tolyl-6-((1E,3E)-3-(1,3,3-trimethylindolin-2-ylidene)prop-1-en-1-yl)pyrylium boron tetrafluoride salt]  1
5. CCc1ccc(-c2cc(/C=C/c3cc4c5c(c3)CCCN5CCC4)[o+]c(-c3ccc(CC)cc3)c2)cc1 [drawing 120, (E)-2,4-bis(4-ethylphenyl)-6-(2-(1,2,3,5,6,7-hexahydropyrido [3,2,1-ij]quinolin-9-yl)vinyl)pyrylium boron tetrafluoride salt]  1
6. CN(C)c1ccc(/C=C/c2cc(-c3ccccc3)cc(-c3ccccc3)[o+]2)cc1 [(E)-2-(4-(dimethylamino)styryl)-4,6-diphenylpyrylium boron tetrafluoride salt]  2
7. Cc1cc(/C=C/c2ccc(N(C)C)cc2)cc(C)[o+]1 [(E)-4-(4-(dimethylamino)styryl)-2,6-dimethvlpyrylium boron tetrafluoride salt]  16
8. CN(C)c1ccc(/C=C/c2cc(-c3ccc(Br)cc3)cc(-c3ccc(Br)cc3)[o+]2)cc1 [drawing 88, (E)-2,4-bis(4-bromophenyl)-6-(4-(dimethylamino)styryl)pyrylium boron tetrafluoride salt]  32

Source: patent publication US10941114B2, “Small molecule lipid II inhibitors” (University Of Maryland, Baltimore, priority 2015, dated 2021)
